# Measured values published in article PMC6298115, “Design and in vitro realization of carbon-conserving photorespiration” (Proceedings of the National Academy of Sciences of the …, 2018).
# B1: EcACS (Escherichia coli K-12) (protein)
# chain: MSQIHKHTIPANIADRCLINPQQYEAMYQQSINVPDTFWGEQGKILDWIKPYQKVKNTSFAPGNVSIKWYEDGTLNLAANCLDRHLQENGDRTAIIWEGDDASQSKHISYKELHRDVCRFANTLLELGIKKGDVVAIYMPMVPEAAVAMLACARIGAVHSVIFGGFSPEAVAGRIIDSNSRLVITSDEGVRAGRSIPLKKNVDDALKNPNVTSVEHVVVLKRTGGKIDWQEGRDLWWHDLVEQASDQHQAEEMNAEDPLFILYTSGSTGKPKGVLHTTGGYLVYAALTFKYVFDYHPGDIYWCTADVGWVTGHSYLLYGPLACGATTLMFEGVPNWPTPARMAQVVDKHQVNILYTAPTAIRALMAEGDKAIEGTDRSSLRILGSVGEPINPEAWEWYWKKIGNEKCPVVDTWWQTETGGFMITPLPGATELKAGSATRPFFGVQPALVDNEGNPLEGATEGSLVITDSWPGQARTLFGDHERFEQTYFSTFKNMYFSGDGARRDEDGYYWITGRVDDVLNVSGHRLGTAEIESALVAHPKIAEAAVVGIPHNIKGQAIYAYVTLNHGEEPSPELYAEVRNWVRKEIGPLATPDVLHWTDSLPKTRSGKIMRRILRKIAAGDTSNLGDTSTLADPGVVEKLLEEKQAIAMPS
# Key:
# RpPduP [1] = target: T1, RpPduP (Rhodopseudomonas palustris, UniProt Q21A49, P164G/I199R/N203L/I222L/L268I/P269T/V271T/L423H, form not given); test: NADH oxidation, absorbance at […] nm; assay type: biochemical; details: GCR; saturating acetyl-CoA; pH 8.0 Hepes, 37 °C, 5 mM MgCl2; Table 2 note numbers mutations +2; read-out: Engineered GCR
# T1 construct: gene RPC_1174; N-terminal 6xHis, pET45a, expressed in E. coli BL21(DE3), Ni-NTA
# T1 sequence (Q21A49 entry or part of it P164G/I199R/N203L/I222L/L268I/P269T/V271T/L423H, form open): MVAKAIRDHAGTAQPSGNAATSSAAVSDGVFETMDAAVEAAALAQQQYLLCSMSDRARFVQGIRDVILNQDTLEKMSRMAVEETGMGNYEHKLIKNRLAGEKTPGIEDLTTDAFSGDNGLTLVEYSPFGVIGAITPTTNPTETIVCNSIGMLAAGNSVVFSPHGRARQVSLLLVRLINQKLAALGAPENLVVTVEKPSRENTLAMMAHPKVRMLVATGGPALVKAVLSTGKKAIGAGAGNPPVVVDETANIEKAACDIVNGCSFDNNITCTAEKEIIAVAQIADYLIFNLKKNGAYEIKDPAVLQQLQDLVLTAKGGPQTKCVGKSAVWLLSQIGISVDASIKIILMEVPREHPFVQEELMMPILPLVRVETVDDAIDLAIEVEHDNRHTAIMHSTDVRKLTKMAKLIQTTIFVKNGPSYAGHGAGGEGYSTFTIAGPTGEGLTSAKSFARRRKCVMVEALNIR
# RpPduP [2] = target: T2, RpPduP (Rhodopseudomonas palustris, UniProt Q21A49); test: NADH oxidation, absorbance at […] nm; assay type: biochemical; details: pH 8.0 Hepes, 37 °C, 5 mM MgCl2
# T2 construct: gene RPC_1174; N-terminal 6xHis, pET45a, expressed in E. coli BL21(DE3), Ni-NTA
# T2 sequence (Q21A49 entry or part of it): as the sequence (Q21A49 entry or part of it P164G/I199R/N203L/I222L/L268I/P269T/V271T/L423H, form open) above, with G164P, R199I, L203N, L222I, I268L, T269P, T271V, H423L counted along it
# RpPduP [3] = target: T2, RpPduP; test: NADPH oxidation, absorbance at […] nm; assay type: biochemical; details: pH 8.0 Hepes, 37 °C, 5 mM MgCl2
# RpPduP [4] = target: T1, RpPduP; test: NADPH oxidation, absorbance at […] nm; assay type: biochemical; details: GCR, pH 8.0 Hepes, 37 °C, 5 mM MgCl2, Table 2 note numbers mutations +2, read-out: Engineered GCR
# purified protein = substrate: CC(=O)O; test: purified protein; details: 1 mM CoA, 2.5 mM ATP, 5 mM MgCl2, 1 mM DTT, pH 8.0 Hepes, 37 °C
molecule,measurement,setting,value
NC(=O)C1=CN([C@@H]2O[C@H](COP(=O)(O)OP(=O)(O)OC[C@H]3O[C@@H](n4cnc5c(N)ncnc54)[C@H](O)[C@@H]3O)[C@@H](O)[C@H]2O)C=CC1 [NADH],Km,RpPduP [1],70 ± 10 µM
same,Km,RpPduP [2]; saturating acetyl-CoA,120 ± 30 µM
NC(=O)C1=CN([C@@H]2O[C@H](COP(=O)(O)OP(=O)(O)OC[C@H]3O[C@@H](n4cnc5c(N)ncnc54)[C@H](OP(=O)(O)O)[C@@H]3O)[C@@H](O)[C@H]2O)C=CC1 [NADPH],Km,RpPduP [3]; saturating glycolyl-CoA,370 ± 90 µM
same,Km,RpPduP [4]; saturating glycolyl-CoA,240 ± 60 µM
CC(=O)SCCNC(=O)CCNC(=O)[C@H](O)C(C)(C)COP(=O)(O)OP(=O)(O)OC[C@H]1O[C@@H](n2cnc3c(N)ncnc32)[C@H](O)[C@@H]1OP(=O)(O)O [acetyl-CoA],Km,RpPduP [3]; saturating NADPH,220 ± 20 µM
same,Km,RpPduP [4]; saturating NADPH,220 ± 60 µM
CC(C)(COP(=O)(O)OP(=O)(O)OC[C@H]1O[C@@H](n2cnc3c(N)ncnc32)[C@H](O)[C@@H]1OP(=O)(O)O)[C@@H](O)C(=O)NCCC(=O)NCCSC(=O)CO [glycolyl-CoA],Km,RpPduP [4]; saturating NADPH,240 ± 20 µM
same,Km,RpPduP [2]; saturating NADH,220 ± 120 µM
B1,Km,purified protein,87 ± 4 µM
same,kcat,purified protein,13.5 s⁻¹
same,kcat/Km,purified protein,155000 M⁻¹ s⁻¹
